Here are results for four compounds from patent US20220031848A1, “BIOINK FOR 3D DEPOSITION” (Regents of the University of Minnesota, priority 2018, published 2022).

The test system of assay [1] is differentiated hiPSCs in the printed heart. The assay can be described thus: Calcium traces of the printed heart, first experiment (FIG. 9). It is filed as cell-based, human. The conditions noted are these: complex printed heart (FIG. 9).
For assay [2], the system named is hChaMPs. Briefly: Calcium transients in hChaMPs (Fluo-4 AM), drug response. It counts as cell-based, human. On the procedure:
Calcium movement in hChaMPs was recorded after recovery from lactate treatment using a DMi8 fluorescence microscope (Leica, Wetzlar, Germany). hChaMPs were first cultured with 5 μM Fluo-4 acetoxymethyl ester for 30 min at 37° C. and then washed with Tyrode's salt solution for another 30 min at 37° C. After that, the plates with hChaMPs were moved onto the microscope stage and covered with a heating plate to maintain the temperature at 37° C. Fluo-4 AM intensity was recorded at a frame rate of 6.90 Hz with 30 ms exposure time. The acquired data was processed by Fiji and a custom-written script in MATLAB (MathWorks). To generate the calcium traces, background signals of nonactive regions were subtracted from fluorescence signals of beating sites and then normalized against the baseline intensity. The effects of ionotropic drugs on calcium activity of hChaMPs were also analyzed by incubating Fluo-4 AM-treated hChaMPs with 1 μM Isoproterenol or 0.5 μM Verapamil for 10 min at 37° C. prior to being imaged. Calcium transients are presented as normalized intensity (f/f0) over time, along with the average peak amplitude and the average interspike interval.

The test system of assay [3] is hChaMPs. Briefly: Contractility video analysis of hChaMPs. It is filed as cell-based. The conditions noted are these: Homo sapiens; at least 3 different areas across 2 hChaMPs (FIG. 38); read-out: EC50, beat rate by contractility. The source says:
Beating videos of hChaMPs were obtained at 4× on an Axiovert CFL 40 microscope at 8.7 frames per second. Beating rates (contraction, relaxation, and beats per minute) were obtained using an open source automated video analysis algorithm^4 with a macroblock size of 100×100 pixels and a maximum movement detection of 50 pixels to accommodate the robust movement of the tissue. For generation of a heat map of contractility over an entire hChaMP, a macroscale video was used with the macroblock size set to 25×25 pixels in the video analysis algorithm with a maximum movement detection of 20 pixels due to the lower magnification.

In assay [4] the test system is hChaMP. Briefly: Pressure-volume catheter measurement in hChaMP. It is filed as cell-based, human. As to conditions: 1 μM versus spontaneous contraction, 5 contraction cycles (FIGS. 44A, 44B). On the procedure:
Pulse pressure and stroke volume of hChaMPs were measured using an ADV500 PV system with a PV catheter. The hChaMP was transferred to a 10 cm dish with 20 mL RPMI plus B-27 Supplement with insulin on a heating plate pre-heated to 37° C. to ensure the working temperature was always above 30° C. The PV catheter was inserted and positioned close to the apex of hChaMP to obtain clear pressure and volume signals, and the vessel through which the catheter was inserted was tied off to stabilize the construct. Isoproterenol was given by adding 20 μL of 1 mM solution into the dish to achieve the final concentration of 1 μM. […] The volume reading was further calibrated by conducting a dye dilution test. Briefly, acellular hChaMPs were first monitored by the ADV500 PV system while being compressed and released by 1.45 mm, 2.9 mm, and 4.35 mm from the side. […] Next, the hChaMP was compressed and released by 1.45 mm depth from the side for 3 times, and the hChaMP was then removed and the bulk medium was collected and examined by a Cytation 3 microplate reader at 524 nm for absorbance from which the displaced volume could be determined. […]
The acquired data was post-processed and analyzed by a custom-written script in MATLAB. […] To examine the stroke work generated by the hChaMPs, 5 random contraction cycles were used for creating PV loops and the stroke work was determined by the area in the loops.

For assay [5], the system named is hChaMP. The assay can be described thus: Optical mapping of voltage in hChaMP (di-4-ANEPPS). It is filed as cell-based, human. As to conditions: 1 μM (FIG. 35B). On the procedure:
The hChaMP was immersed in a 10 μM solution of the voltage-sensitive dye di-4-ANEPPS in Krebs-Ringer Buffer for 20 min. After this incubation, half of the dye solution was removed and replaced with RPMI+B27 with insulin media. After 2-5 min stabilization, hChaMPs were excited with a two diode-pumped, continuous-excitation green laser (532 nm, 1 W), and fluorescence intensity was recorded for 15 seconds using 14-bit, 80×80-pixel resolution cameras at 500 frames per second. In some hChaMPs, pacing was provided at 1 and 2 Hz via a bipolar electrode and optical mapping movies were recorded during pacing. For drug testing, hChaMPs were treated with 1 μM of isoproterenol and optical mapping movies were recorded with and without pacing.
Optical action potential duration (APD) was measured at 80% repolarization, and two-dimensional (2D) APD maps were constructed to reveal the spatial distribution of APD on the hChaMP surface. Local conduction velocity (CV) was calculated as described previously. Specifically, the distributions of activation times (AT), measured at (dV/dt)max, for the spatial regions of 3×3 pixels were fitted with the plane, and gradients of activation times gx and gy were calculated for each plane along the x- and y-axes, respectively. The magnitude of the local CV was calculated for each pixel as (gx^2+gy^2)^−1/2. Mean values for CV were calculated for the visible surface. […]

For assay [6], the system named is printed heart. Briefly: Fluid pressure in ventricular-like chamber of the printed heart (FIG. 11A). It is filed as cell-based. The conditions noted are these: versus spontaneous mechanical activity of the same chamber. The source says:
FIG. 11A is a graph of pressure dynamics of an example printed heart using bioink described herein. […] The relatively flat line is the system baseline without contraction. Other clinically-important, physiologically complex mechanical parameters can also be measured. FIG. 11B is an optical map of an example printed heart using bioink described herein.

Consider `Cn1c(=O)c2c(ncn2C)n(C)c1=O` [caffeine], for which, in assay [1], the “beating rate with respect to control” value was “accelerate”.

With `COc1ccc(CCN(C)CCCC(C#N)(c2ccc(OC)c(OC)c2)C(C)C)cc1OC` (stereo not drawn) [verapamil], the calcium handling amplitude result in assay [2] (0.5 μM, 10 min at 37° C.) is “decreased in amplitude”. Besides, the “beating rate with respect to control” value in assay [1] is reported as “slow”.

In the case of `CC(C)NCC(O)c1ccc(O)c(O)c1` (stereo not drawn) [isoproterenol], the calcium handling frequency entry in assay [2] (1 μM, 10 min at 37° C.) is reported as “increased in frequency”. Moreover, the EC50 in assay [2] (Homo sapiens, 5 different areas across two hChaMPs (FIG. 31), read-out: EC50, beat rate by calcium transient activity) was found to be 9 nM; in assay [3] it was 9 nM. Moreover, the stroke work entry in assay [4] was “reduced”. The “response of electrical activity to drug stimulation” value in assay [5] is “responded in a dramatic and predicted fashion”.

Take `Cc1ccc2c(c1)C(=O)C1(O)CCN(c3ccccc3)C1=N2` (stereo not drawn) [blebbistatin]: the chamber pressure amplitude entry in assay [6] is on record as “inhibited pressure amplitudes”.
